The values that follow come from PMC11063128 (Journal of the American Chemical Society, 2023).

One assay deals with T1, MMADHC (CblD) (Homo sapiens, UniProt Q9H3L0, C261S/C262S).
T1 sequence (Q9H3L0 1-296 C261S/C262S): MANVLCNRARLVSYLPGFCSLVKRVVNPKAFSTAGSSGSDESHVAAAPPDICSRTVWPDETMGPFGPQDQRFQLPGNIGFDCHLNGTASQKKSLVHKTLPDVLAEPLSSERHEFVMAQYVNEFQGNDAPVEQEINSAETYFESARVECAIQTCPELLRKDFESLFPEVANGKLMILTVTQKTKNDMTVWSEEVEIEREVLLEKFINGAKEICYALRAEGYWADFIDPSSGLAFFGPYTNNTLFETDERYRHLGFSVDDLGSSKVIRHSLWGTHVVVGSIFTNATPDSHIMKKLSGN
Briefly: UV-visible titration. Type of assay: binding.

For assay [1], the target named is T2, C262S ^ΔNMMADHC–S–Cob(III) (human, UniProt Q9H3L0 116-296, C262S, thiolato-cob(III)alamin (cobalamin coordinated through a cysteine sulfur, -S-Cob(III))).
T2 sequence (looked up): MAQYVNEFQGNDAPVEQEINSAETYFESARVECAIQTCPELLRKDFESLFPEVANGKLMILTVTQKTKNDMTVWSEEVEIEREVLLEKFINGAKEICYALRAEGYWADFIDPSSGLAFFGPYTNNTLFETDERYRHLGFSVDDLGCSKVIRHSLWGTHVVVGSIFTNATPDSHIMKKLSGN
Briefly: UV-visible absorbance titration.

With H2OCbl, binding at MMADHC (CblD) was put at a Kd of 8.4 ± 1.9 µM.

B1: ^ΔNMTR, C-terminal half of human methionine synthase (cap, B12 and AdoMet domains, residues 661–1265) (domain or fragment, UniProt Q99707 661-1265, looked up)
chain: IQTDEWRNGPVEERLEYALVKGIEKHIIEDTEEARLNQKKYPRPLNIIEGPLMNGMKIVGDLFGAGKMFLPQVIKSARVMKKAVGHLIPFMEKEREETRVLNGTVEEEDPYQGTIVLATVKGDVHDIGKNIVGVVLGCNNFRVIDLGVMTPCDKILKAALDHKADIIGLSGLITPSLDEMIFVAKEMERLAIRIPLLIGGATTSKTHTAVKIAPRYSAPVIHVLDASKSVVVCSQLLDENLKDEYFEEIMEEYEDIRQDHYESLKERRYLPLSQARKSGFQMDWLSEPHPVKPTFIGTQVFEDYDLQKLVDYIDWKPFFDVWQLRGKYPNRGFPKIFNDKTVGGEARKVYDDAHNMLNTLISQKKLRARGVVGFWPAQSIQDDIHLYAEAAVPQAAEPIATFYGLRQQAEKDSASTEPYYCLSDFIAPLHSGIRDYLGLFAVACFGVEELSKAYEDDGDDYSSIMVKALGDRLAEAFAEELHERVRRELWAYCGSEQLDVADLRRLRYKGIRPAPGYPSQPDHTEKLTMWRLADIEQSTGIRLTESLAMAPASAVSGLYFSNLKSKYFAVGKISKDQVEDYALRKNISVAEVEKWLGPILGYDTD
With B1, the “stoichiometry N” value in assay [1] is 1.

Usually Kd stands for the equilibrium constant for the complex coming apart. A lower Kd goes with higher affinity. Broadly, the stoichiometry N is the number of molecules, sites or subunits per partner or assembly.
